Measured values taken from patent publication US20100144860A1, “Transglutaminase Inhibitor Comprising EGCG And A Method For Producing Thereof” (priority 2007, published 2010).

Target: T1, Transglutaminase 2 (Cavia cutleri, UniProt P08587)
T1 construct: purchased Sigma-Aldrich T5398
T1 sequence (P08587 1-690): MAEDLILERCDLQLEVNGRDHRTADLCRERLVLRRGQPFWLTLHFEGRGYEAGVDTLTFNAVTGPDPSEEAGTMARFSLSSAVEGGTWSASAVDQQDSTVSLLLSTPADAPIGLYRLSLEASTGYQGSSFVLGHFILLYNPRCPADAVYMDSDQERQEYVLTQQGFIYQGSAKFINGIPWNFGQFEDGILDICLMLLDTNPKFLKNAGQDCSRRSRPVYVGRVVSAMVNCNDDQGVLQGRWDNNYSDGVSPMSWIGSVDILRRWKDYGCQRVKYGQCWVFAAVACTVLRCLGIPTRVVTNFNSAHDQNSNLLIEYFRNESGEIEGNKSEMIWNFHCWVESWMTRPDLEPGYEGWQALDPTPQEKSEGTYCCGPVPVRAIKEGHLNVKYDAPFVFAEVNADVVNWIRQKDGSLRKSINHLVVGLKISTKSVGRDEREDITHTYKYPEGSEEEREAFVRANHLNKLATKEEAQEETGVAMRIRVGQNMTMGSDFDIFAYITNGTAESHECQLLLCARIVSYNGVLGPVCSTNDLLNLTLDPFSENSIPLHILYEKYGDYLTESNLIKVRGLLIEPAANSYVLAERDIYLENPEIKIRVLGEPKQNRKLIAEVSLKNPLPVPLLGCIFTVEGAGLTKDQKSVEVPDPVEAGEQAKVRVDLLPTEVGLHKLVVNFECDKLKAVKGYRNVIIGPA
Experiment: In vitro assay for inhibition of transglutaminase activity ([1,4-14C] putrescine incorporation into succinylated casein)
Type: biochemical
Settings: for activity of transglutaminase, Mean: mean of three assays, relative to DMSO control; for activity of transglutaminase, Assay 1 / activity of transglutaminase, Assay 2 / activity of transglutaminase, Assay 3: radioactivity compensated by DMSO-control group (=1.0000)
Experimental: To measure the inhibitory activity of EGCG which competes with putrescine, the transglutaminase-catalyzed reaction between [1,4,-^14C] putrescine and succinylated casein were observed.
Succinylated casein was purchased from Calbiochem (Cat. No. 573464), and 1 g of the powder was dissolved in 50 ml of a reaction buffer solution containing 5 mM DTT (0.1 M Tris-acetate (pH 8.0), 10 mM CaCl2, 0.15 M NaCl, 1.0 mM EDTA). This solution was stored in a deep freezer for further use. [1,4-^14C] Putrescine dihydrochloride was purchased from GE Healthcare (Cat. No. CFA301), and the stock solution was diluted with distilled water to yield a radiological dose of 5 μCi/ml. Transglutaminase 2 was purchased from Sigma-Aldrich (Cat. No. T5398), and diluted with distilled water to yield a final concentration of 1 unit/ml. EGCG (Sigma-Aldrich, Cat. No. E4143) was dissolved in DMSO at a concentration of 10 mM to prepare its stock solution, and the stock solution was diluted with DMSO to prepare solutions having various concentrations.
450 μl of succinylated casein solution and 50 μl of [1,4-^14C] putrescine dihydrochloride solution were mixed together to prepare a substrate solution. 96 μl of the reaction buffer, 3 μl of the stock solution of EGCG, and 1 μl of the stock solution of transglutaminase were mixed together to prepare each sample, followed by incubation at 37° C. for 10 min. 500 μl of the substrate solution and 100 μl of sample solution were mixed well, and the mixture was incubated at 37° C. for 2 hrs, before termination with 4.5 ml of cold (4° C.) 7.5% TCA. The final solution was stored at 4° C. for 1 hr. The TCA-precipitates were filtered through a GF/glass fiber filter, washed with 25 ml of cold 5% TCA, and dried. Radioactivity of crosslinked protein was measured using a (β-counter (Beckman Coulter), and compensated by the activity of DMSO-control group as a standard. The activity of transglutaminase was represented by the measured values. The assay was repeated three times under the same conditions, and the results are shown in the following Table 1.

O=C(O[C@@H]1Cc2c(O)cc(O)cc2O[C@@H]1c1cc(O)c(O)c(O)c1)c1cc(O)c(O)c(O)c1 [EGCG, [2R, 3R]-2[3,4,5-trihydroxyphenyl]-3,4-dihydro-1[2H]-benzopyran-3,5,7-triol-3-[3,4,5-trihydroxybenzonate]]
activity of transglutaminase, Mean (EGCG 0.5 μM): 0.5383
activity of transglutaminase, Assay 1 (EGCG 0.5 μM): 0.5166
activity of transglutaminase, Assay 2 (EGCG 0.5 μM): 0.5690
activity of transglutaminase, Assay 3 (EGCG 0.5 μM): 0.5295
activity of transglutaminase, Mean (EGCG 1.0 μM): 0.3677
activity of transglutaminase, Assay 1 (EGCG 1.0 μM): 0.3950
activity of transglutaminase, Assay 2 (EGCG 1.0 μM): 0.3873
activity of transglutaminase, Assay 3 (EGCG 1.0 μM): 0.3207
activity of transglutaminase, Mean (EGCG 2.0 μM): 0.2001
activity of transglutaminase, Assay 1 (EGCG 2.0 μM): 0.2009
activity of transglutaminase, Assay 2 (EGCG 2.0 μM): 0.2288
activity of transglutaminase, Assay 3 (EGCG 2.0 μM): 0.1707
activity of transglutaminase, Mean (EGCG 3.0 μM): 0.1765
activity of transglutaminase, Assay 1 (EGCG 3.0 μM): 0.1911
activity of transglutaminase, Assay 2 (EGCG 3.0 μM): 0.1902
activity of transglutaminase, Assay 3 (EGCG 3.0 μM): 0.1482
activity of transglutaminase, Mean (EGCG 5.0 μM): 0.1064
activity of transglutaminase, Assay 1 (EGCG 5.0 μM): 0.1246
activity of transglutaminase, Assay 2 (EGCG 5.0 μM): 0.0947
activity of transglutaminase, Assay 3 (EGCG 5.0 μM): 0.1000
activity of transglutaminase, Mean (EGCG 10.0 μM): 0.0879
activity of transglutaminase, Assay 1 (EGCG 10.0 μM): 0.1029
activity of transglutaminase, Assay 2 (EGCG 10.0 μM): 0.0726
activity of transglutaminase, Assay 3 (EGCG 10.0 μM): 0.0881
activity of transglutaminase, Mean (EGCG 50.0 μM): 0.0871
activity of transglutaminase, Assay 1 (EGCG 50.0 μM): 0.0861
activity of transglutaminase, Assay 2 (EGCG 50.0 μM): 0.0903
activity of transglutaminase, Assay 3 (EGCG 50.0 μM): 0.0849
inhibition of the activity of transglutaminase (in words) (FIG. 1, relative inhibition activities): inhibited in an EGCG concentration-dependent manner
IC50 (calculated by nonlinear regression from mean values): 517 nM
